Assay results from patent US20130281491A1 (priority 2010, published 2013).

Assay: Forced degradation of methadone hydrochloride solutions (HPLC)
Conditions: 1M hydrochloric acid or 0.1M sodium hydroxide, 25° C. for a week

CCC(=O)C(CC(C)N(C)C)(c1ccccc1)c1ccccc1 (stereo not shown) [methadone]
Stability with acids and bases: no detected degradation
